Experimental data published in ChEMBL document CHEMBL1201862, “PubChem BioAssay data set” (2004).
One block for each compound: values may come before it. Active and inactive are the calls of the source.

Experiments:
Type in all cases: functional
[1] = target: T1, Sentrin-specific protease 7 (Homo sapiens, UniProt Q9BQF6); experiment: inhibition of human SENP7 cleavage activity – biochemical, luminescence, SAR follow-up (AID 504497)
T1 sequence (Q9BQF6 whole entry): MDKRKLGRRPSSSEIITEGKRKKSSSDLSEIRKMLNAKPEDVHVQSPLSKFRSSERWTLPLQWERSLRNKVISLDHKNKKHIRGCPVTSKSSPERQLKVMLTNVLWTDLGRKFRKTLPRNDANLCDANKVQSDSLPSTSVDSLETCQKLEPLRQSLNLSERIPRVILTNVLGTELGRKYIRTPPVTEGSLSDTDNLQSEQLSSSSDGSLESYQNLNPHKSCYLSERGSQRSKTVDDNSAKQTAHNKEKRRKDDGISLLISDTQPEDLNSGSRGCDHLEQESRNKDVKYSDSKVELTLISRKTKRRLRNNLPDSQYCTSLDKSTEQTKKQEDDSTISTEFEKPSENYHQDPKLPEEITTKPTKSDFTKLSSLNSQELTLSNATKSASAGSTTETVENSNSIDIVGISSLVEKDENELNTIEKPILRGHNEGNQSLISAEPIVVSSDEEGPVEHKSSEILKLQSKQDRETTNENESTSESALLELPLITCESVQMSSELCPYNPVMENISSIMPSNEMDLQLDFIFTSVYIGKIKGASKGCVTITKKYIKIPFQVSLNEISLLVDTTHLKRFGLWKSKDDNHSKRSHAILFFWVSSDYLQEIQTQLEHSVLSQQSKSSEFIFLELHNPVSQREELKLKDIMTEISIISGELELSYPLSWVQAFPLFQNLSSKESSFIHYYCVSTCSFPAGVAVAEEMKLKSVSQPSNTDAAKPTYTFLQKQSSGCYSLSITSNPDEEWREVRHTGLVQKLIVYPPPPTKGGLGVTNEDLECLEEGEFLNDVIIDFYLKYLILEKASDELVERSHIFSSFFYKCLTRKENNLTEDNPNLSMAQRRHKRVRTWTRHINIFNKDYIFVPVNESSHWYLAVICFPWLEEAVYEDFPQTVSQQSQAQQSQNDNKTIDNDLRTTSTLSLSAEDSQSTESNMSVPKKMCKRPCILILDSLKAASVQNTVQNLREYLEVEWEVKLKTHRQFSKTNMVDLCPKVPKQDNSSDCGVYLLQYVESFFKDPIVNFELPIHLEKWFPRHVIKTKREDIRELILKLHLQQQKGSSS

[2] = target: T2, Sentrin-specific protease 6 (Homo sapiens, UniProt Q9GZR1); experiment: SAR Analysis of small molecule inhibitors of Sentrin-specific protease 6 (SENP6) using a Luminescent assay. [Related pubchem assays (depositor defined):AID2582, AID2599]
T2 sequence (Q9GZR1 whole entry): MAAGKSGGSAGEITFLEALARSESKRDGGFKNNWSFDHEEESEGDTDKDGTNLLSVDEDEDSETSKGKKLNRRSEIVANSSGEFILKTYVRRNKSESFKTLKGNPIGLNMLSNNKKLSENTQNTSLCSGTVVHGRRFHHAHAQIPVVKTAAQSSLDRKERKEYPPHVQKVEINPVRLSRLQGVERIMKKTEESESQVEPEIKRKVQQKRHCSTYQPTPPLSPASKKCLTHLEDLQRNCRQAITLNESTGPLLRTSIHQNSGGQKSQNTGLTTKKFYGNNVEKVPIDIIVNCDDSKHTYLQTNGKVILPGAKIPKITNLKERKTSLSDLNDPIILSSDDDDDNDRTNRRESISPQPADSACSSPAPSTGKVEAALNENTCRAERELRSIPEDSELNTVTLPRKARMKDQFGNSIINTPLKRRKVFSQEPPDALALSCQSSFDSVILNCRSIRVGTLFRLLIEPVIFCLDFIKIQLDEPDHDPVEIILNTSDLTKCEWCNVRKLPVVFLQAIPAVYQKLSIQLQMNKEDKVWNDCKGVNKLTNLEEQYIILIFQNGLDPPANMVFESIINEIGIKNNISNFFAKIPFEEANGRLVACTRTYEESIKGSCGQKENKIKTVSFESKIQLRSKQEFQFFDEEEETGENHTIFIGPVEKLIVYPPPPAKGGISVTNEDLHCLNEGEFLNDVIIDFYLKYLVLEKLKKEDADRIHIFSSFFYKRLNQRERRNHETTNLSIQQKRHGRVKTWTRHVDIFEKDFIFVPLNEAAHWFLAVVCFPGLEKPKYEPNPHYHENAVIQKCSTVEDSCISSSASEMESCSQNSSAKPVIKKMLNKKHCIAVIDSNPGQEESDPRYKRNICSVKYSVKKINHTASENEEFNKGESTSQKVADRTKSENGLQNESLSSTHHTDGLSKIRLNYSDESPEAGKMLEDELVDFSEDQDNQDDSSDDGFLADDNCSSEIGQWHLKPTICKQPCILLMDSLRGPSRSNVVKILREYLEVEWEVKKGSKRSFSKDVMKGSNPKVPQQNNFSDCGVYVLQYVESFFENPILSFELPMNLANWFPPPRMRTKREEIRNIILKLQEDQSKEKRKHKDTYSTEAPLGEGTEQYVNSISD

Caspase-3 = target: T3, Caspase-3 (Homo sapiens, UniProt P42574); experiment: SAR Analysis of small molecule inhibitors of Sentrin-specific proteases (SENPs) using a Caspase-3 Selectivity assay. [Related pubchem assays (depositor defined):AID2540, AID2599, AID434973, AID489001]
T3 sequence (P42574 whole entry): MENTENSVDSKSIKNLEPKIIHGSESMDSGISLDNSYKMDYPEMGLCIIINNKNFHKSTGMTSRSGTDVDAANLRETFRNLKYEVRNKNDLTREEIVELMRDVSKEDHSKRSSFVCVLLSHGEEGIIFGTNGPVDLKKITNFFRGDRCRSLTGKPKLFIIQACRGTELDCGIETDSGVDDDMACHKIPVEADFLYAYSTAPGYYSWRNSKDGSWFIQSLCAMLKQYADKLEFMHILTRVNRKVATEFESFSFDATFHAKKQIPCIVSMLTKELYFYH

[3] = target: T4, Sentrin-specific protease 8 (Homo sapiens, UniProt Q96LD8); experiment: inhibition of human SENP8 cleavage activity – biochemical, luminescence, SAR follow-up (AID 504501)
T4 sequence (Q96LD8 whole entry): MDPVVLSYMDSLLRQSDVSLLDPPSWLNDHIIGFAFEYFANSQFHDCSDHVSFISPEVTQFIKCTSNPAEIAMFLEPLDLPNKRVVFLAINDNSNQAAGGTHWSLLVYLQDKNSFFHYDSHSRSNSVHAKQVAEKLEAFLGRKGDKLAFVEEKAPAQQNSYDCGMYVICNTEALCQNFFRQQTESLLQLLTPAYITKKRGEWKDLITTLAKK

[4] = target: T5, High affinity choline transporter 1 (Homo sapiens, UniProt Q9GZV3); experiment: human choline transporter blockers, potency – cell-based, 5-point CRC, membrane potential dye, dose response (AID 504840)
T5 sequence (Q9GZV3 whole entry): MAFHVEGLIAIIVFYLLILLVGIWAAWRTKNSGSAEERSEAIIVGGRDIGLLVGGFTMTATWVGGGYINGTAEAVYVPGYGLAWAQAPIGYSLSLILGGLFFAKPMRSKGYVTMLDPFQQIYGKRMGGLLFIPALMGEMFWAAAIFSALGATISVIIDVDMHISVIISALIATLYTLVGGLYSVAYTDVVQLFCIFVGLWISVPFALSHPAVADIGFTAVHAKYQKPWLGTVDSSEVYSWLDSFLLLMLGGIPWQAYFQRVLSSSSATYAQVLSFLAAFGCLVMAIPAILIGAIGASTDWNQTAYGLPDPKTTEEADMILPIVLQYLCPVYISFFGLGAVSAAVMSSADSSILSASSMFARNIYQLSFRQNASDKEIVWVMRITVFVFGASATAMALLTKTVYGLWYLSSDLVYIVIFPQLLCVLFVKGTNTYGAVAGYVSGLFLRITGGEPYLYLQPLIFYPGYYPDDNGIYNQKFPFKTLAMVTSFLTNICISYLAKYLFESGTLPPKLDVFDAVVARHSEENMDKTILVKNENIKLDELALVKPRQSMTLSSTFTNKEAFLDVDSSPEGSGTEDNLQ

[5] = target: T5, High affinity choline transporter 1; experiment: human choline transporter blockers, potency – cell-based, 10-point CRC, membrane potential dye, dose response (AID 588401);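 note: membrane potential dye fluorescence of choline-evoked depolarization via CHT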
[6] = target: T6, Neuropeptides B/W receptor type 1 (Homo sapiens, UniProt P48145); experiment: human NPBW1 receptor blockade, IC50 – cell-based, fluorescence, dose response, set 6, late-stage follow-up (AID 588583)
T6 sequence (P48145 whole entry): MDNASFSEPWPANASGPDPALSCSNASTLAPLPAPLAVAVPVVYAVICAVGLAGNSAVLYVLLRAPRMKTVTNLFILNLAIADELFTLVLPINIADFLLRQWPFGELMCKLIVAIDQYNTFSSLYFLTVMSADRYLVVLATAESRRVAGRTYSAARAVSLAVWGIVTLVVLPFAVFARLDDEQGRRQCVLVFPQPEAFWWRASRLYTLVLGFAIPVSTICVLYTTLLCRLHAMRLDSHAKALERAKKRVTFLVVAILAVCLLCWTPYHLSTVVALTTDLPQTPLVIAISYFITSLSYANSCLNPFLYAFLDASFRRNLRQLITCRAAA

[7] = target: Melanin-concentrating hormone receptor 1 (Homo sapiens, UniProt Q99705); experiment: Late-stage fluorescence-based counterscreen for antagonists of the G-protein coupled receptor 7 (GPR7): cell-based dose response assay to identify antagonists of the melanin-concentrating hormone receptor 1 (MCHR1) Set 6.
Sequence of Melanin-concentrating hormone receptor 1 (Q99705 whole entry): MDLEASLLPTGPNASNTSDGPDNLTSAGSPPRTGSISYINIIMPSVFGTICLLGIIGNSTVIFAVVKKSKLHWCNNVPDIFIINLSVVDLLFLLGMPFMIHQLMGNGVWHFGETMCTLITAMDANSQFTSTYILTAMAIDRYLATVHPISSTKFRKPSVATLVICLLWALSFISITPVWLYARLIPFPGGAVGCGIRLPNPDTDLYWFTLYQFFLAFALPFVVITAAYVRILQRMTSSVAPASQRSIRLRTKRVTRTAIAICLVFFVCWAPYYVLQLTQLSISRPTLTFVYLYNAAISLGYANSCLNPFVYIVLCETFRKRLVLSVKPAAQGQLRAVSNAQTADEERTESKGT

- IC50 [1]: > 99 µM (inactive)
- IC50 [2]: > 99 µM (inactive)
- IC50 (Caspase-3): > 99 µM (inactive)
SMILES: CCCCc1ccc2nc(NC(=O)c3csc4ccccc34)sc2c1
- IC50 [3]: > 99 µM (inactive)

- IC50 [4]: 3.23 µM (active)
- IC50 [5]: 2.84 µM (active)
SMILES: O=C(C[n+]1cccc(Br)c1)c1ccccc1

- IC50 [6]: 0.435 µM (active)
- IC50 [7]: 0.435 µM (active)
SMILES: Cc1nnc(C(C#N)c2c(Cl)cnn(Cc3cccc4ccccc34)c2=O)o1 (stereo not given)

- IC50 [6]: 1.53 µM (active)
- IC50 [7]: 1.53 µM (active)
SMILES: N#CC(c1cccc(C(F)(F)F)c1)c1c(Cl)cnn(Cc2cccc3ccccc23)c1=O (stereo not given)
